From publication PMC6273912, “Novel 5-Substituted 2-(Aylmethylthio)-4-chloro-N-(5-aryl-1,2,4-triazin-3-yl)benzenesulfonamides: Synthesis, Molecular Structure, Anticancer Activity, Apoptosis-Inducing Activity and Metabolic Stability” (Molecules, 2016)
Where two headings read alike, the source gives them in different places.

How the values were obtained:
HeLa (cervical cancer) = assay: MTT cell viability assay, HeLa; assay type: cell-based, human; settings: for IC50: 72 h of incubation, mean ± SD
Method: (§1) All chemicals, if not stated otherwise, were obtained from Sigma-Aldrich (St. Louis, MO, USA). The MCF-7 cell line was purchased from Cell Lines Services (Eppelheim, Germany), the HeLa and HCT-116 cell lines were obtained from the Department of Microbiology, Tumor and Cell Biology, Karolinska Institute (Stockholm, Sweden). Cells were cultured in Dulbecco’s modified Eagle’s medium (DMEM) supplemented with 10% fetal bovine serum, 2 mM glutamine, 100 units/mL penicillin, and 100 μg/mL streptomycin. Cultures were maintained in a humidified atmosphere with 5% CO2 at 37 °C in an incubator (HeraCell, Heraeus, Langenselbold, Germany).
(§2) Cell viability was determined using the MTT (3-(4,5-dimethylthiazol-2-yl)-2,5-diphenyl-tetrazoliumbromide) assay. Stock solutions of the studied compounds were prepared in 100% DMSO. […] Cells were seeded in 96-well plates at a density of 5 × 10^3 cells/well and treated for 72 h with the examined compounds in the concentration range 1–100 μM (1, 10, 25, 50 and 100 μM). Following treatment, MTT (0.5 mg/mL) was added to the medium and cells were further incubated for 2 h at 37 °C. Cells were lysed with DMSO and the absorbance of the formazan solution was measured at 550 nm with a plate reader (1420 multilabel counter, Victor, Jügesheim, Germany). […] The experiment was performed in triplicate. Values are expressed as the mean ± SD of at least three independent experiments.

MCF-7 (breast cancer) = assay: MTT cell viability assay, MCF-7; assay type: cell-based, human; settings: Homo sapiens, MCF7, 72 h of incubation, mean ± SD
Method: as §1, §2

[1] = system: HeLa as well as HCT-116 cells; assay: MTT cell viability assay, HeLa and HCT-116; assay type: cell-based, human; settings: summary over the two cell lines; for IC50: Homo sapiens, read-out: IC50 toward HeLa as well as HCT-116
Method: as §1, §2

HCT-116 (colon cancer) = assay: MTT cell viability assay, HCT-116; assay type: cell-based, human; settings: 72 h of incubation, mean ± SD
Method: as §1, §2

[2] = Metabolic stability with human liver microsomes and NADPH; assay type: in vitro ADME; settings: liver microsomes
Method: Stock solutions of studied compounds were prepared at concentration of 10 mM in DMSO. […] Incubation mixture contained 10 μM of a studied derivative, 1 mM of NADPH (Sigma-Aldrich) and 0.5 mg/mL of human liver microsomes (HLM, Sigma-Aldrich) in potassium phosphate buffer (0.1 M, pH 7.4). Incubation was carried out in thermostat at 37 °C and started by addition of studied compound. 50 μL samples were taken after 5, 15, 30, 45 and 60 min. Enzymatic reaction was terminated by the addition of the equal volume of ice-cold acetonitrile containing 10 μM of alprazolam (Sigma-Aldrich) serving as internal standard (IS). Control incubations were performed without NADPH to assess chemical instability. After collection, samples were immediately centrifuged (10 min, 10,000 rpm) and resulted supernatant was directly analyzed or kept in −80 °C until LC-MS analysis. Natural logarithm of a compound over IS peak area ratio was plotted versus incubation time. Metabolic half-time (t1/2) was calculated from the slope of the linear regression, as reported in [48].
LC-MS analysis was performed on an Agilent 1260 system coupled to SingleQuad 6120 mass spectrometer (Agilent Technologies, Santa Clara, CA, USA). Ascentis Express ES-CN (2.1 mm × 100 mm, 2.7 μm, Supelco Analytical, Bellefonte, PA, USA) was used in reversed-phase mode with gradient elution starting with 50% of phase A (10 mM ammonium formate in water) and 50% of phase B (10 mM ammonium formate in acetonitrile-water mixture, 95:5 v/v). […] Total analysis time was 10 min at 25 °C, flow rate was 0.4 mL/min and the injection volume was 20 μL. The mass spectrometer was equipped with electrospray ion source and operated in positive ionization. Mass analyzer was set individually to each compound to detect [M + H]^+ pseudomolecular ions. MSD parameters of the ESI source were as follows: nebulizer pressure 50 psig (N2), drying gas […] (N2), drying gas temperature 300 °C, capillary voltage 3.5 kV, fragmentor voltage 100 V.

HCT-116, HeLa and MCF-7 = assay: MTT cell viability assay, all tested cell lines together; assay type: cell-based; settings: Homo sapiens; average over HCT-116, HeLa and MCF-7; read-out: average IC50 against all tested cell lines
Method: as §1, §2

MCF-7 [3] = assay: Mitochondrial membrane potential (JC-1), MCF-7; assay type: cell-based, human; settings: MCF-7, 24 h, low and moderate concentrations
Method: Loss of the mitochondrial membrane potential (Δψm) is one of the earliest indicators of an apoptosis. It can be detected using fluorescent dye JC-1 (5,5′,6,6′-tetrachloro-1,1′,3,3′-tetraethylbenzimidazolylcarbocyanine iodide) exited with blue laser. JC-1 spontaneously forms dimer complexes (J aggregates) with red fluorescent or remain as a monomers with green fluorescence in cells with high and low Δψm, respectively.
Half an hour before the end of 24 h-treatment 2.5 μg/mL of JC-1 (5,5′,6,6′-tetrachloro-1,1′,3,3′-tetraethylbenzimidazolylcarbocyanine iodide) was added to the cell medium. As a negative control 100 μM CCCP (carbonyl cyanide 3-chlorophenylhydrazone) was used 15 min before JC-1 treatment. Following treatment cells were twice washed with PBS and analyzed with flow cytometer (LSR II, BD Biosciences).
Green and red fluorescence were observed using FL-1 (530 ± 30 nm) and FL-2 (585 ± 42 nm) channels, respectively. Percentage of cell population in red or green fluorescence gate indicated the level of Δψm. Decreasing red fluorescence cell population indicated lower Δψm.

MCF-7 [4] = assay: Cell cycle analysis (sub-G1, DAPI flow cytometry), MCF-7; assay type: cell-based, human; settings: MCF-7, 24 h, mean ± SD
Method: One of the most common mechanisms in anticancer drug treatment is changes in cell cycle, which can be measured by DNA content. Cell cycle distribution in HCT-116, HeLa and MCF-7 cells was examined to determine cycle arrest and/or presence of sub-G1 after treatment with compounds 37 and 46. […] Cell populations data are expressed as the mean ± SD of at least three independent experiments.
Following treatment, cells were fixed in cold 70% ethanol for 30 min. Fixed cells were stained for 15 min in buffer containing 500 μg/mL RNAse A (EURx, Gdansk, Poland) and 2.5 μg/mL of DAPI (Sigma-Aldrich, Munich, Germany). The fluorescence of DAPI was measured at 440 ± 40 nm with a flow cytometer (LSR II, BD Biosciences, Mountain View, CA, USA). Each experiment was performed at least in triplicate. Data were analyzed off-line using the BD FACSDiva (BD Biosciences).

[5] = pH 7.4, human liver microsomes 0.5 mg/mL, 1 mM NADPH, 10 μM compound, pH 7.4, 37 °C, up to 60 min, read-out: In Vitro Metabolic Half-Life t1/2
[6] = pH 7.4, value in parentheses beside >60, beyond the 60 min incubation, human liver microsomes, NADPH, read-out: In Vitro Metabolic Half-Life t1/2 (min), value in parentheses

SMILES	IC50 (HeLa (cervical cancer); Homo sapiens, 72 h)	IC50 (MCF-7 (breast cancer))	IC50 toward HeLa as well as HCT-116 [1]	IC50 (HCT-116 (colon cancer); Homo sapiens, HCT-116, 72 h)	half-life at 10 μM [2, 5]	half-life at 10 μM [2, 6]	IC50 [1]	IC50 (HCT-116, HeLa and MCF-7)	IC50 (HeLa (cervical cancer))	IC50 (HCT-116 (colon cancer))	melting point	effect on mitochondrial membrane potential (Δψm) (MCF-7 [3])	Sub-G1 cell population (MCF-7 [4])	viability at 100 µM (HeLa (cervical cancer); Homo sapiens, HeLa, 72 h, 100 μM, read-out: Viability of cell line at 100 μM (HeLa))
Cc1cc(S(=O)(=O)Nc2nncc(-c3ccc(C(F)(F)F)cc3)n2)c(SCc2ccccc2)cc1Cl [Compound 28, 2-Benzylthio-4-chloro-5-methyl-N-[5-(4-trifluoromethylphenyl)-1,2,4-triazin-3-yl]benzenesulfonamide]	100 ± 6 µM	120 ± 5 µM	loss of activity	200 ± 4 µM	–	–	–	–	–	–	–	–	–	–
COc1ccc(-c2cnnc(NS(=O)(=O)c3cc(C)c(Cl)cc3SCc3cccc4ccccc34)n2)cc1 [Compound 38, 4-Chloro-N-[5-(4-methoxyphenyl)-1,2,4-triazin-3-yl]-5-methyl-2-[(naphthalene-1-yl)methylthio]benzene-sulfonamide]	34 to 42 µM	69 ± 1 µM	–	36 to 38 µM	< 5 min	–	–	50 µM	42 ± 1 µM	38 ± 2 µM	–	–	–	–
O=C(Nc1ccc(Cl)cc1)c1cc(S(=O)(=O)Nc2nncc(-c3ccc(C(F)(F)F)cc3)n2)c(SCc2ccccc2)cc1Cl [Compound 46, 4-Benzylthio-2-chloro-N-(4-chlorophenyl)-5-{N-[5-(4-trifluoromethylphenyl)-1,2,4-triazin-3-yl]sulfamoyl}-benzamide]	80 ± 2 µM	59 ± 2 µM	–	64 ± 1 µM	> 60 min	78.1 min	–	< 71 µM	–	–	–	remarkably decreased Δψm	20% ± 5.6%	–
COc1ccc(-c2cnnc(NS(=O)(=O)c3cc(C(=O)Nc4ccc(Cl)cc4)c(Cl)cc3SCc3ccccc3)n2)cc1 [Compound 47, 4-Benzylthio-2-chloro-N-(4-chlorophenyl)-5-{N-[5-(4-methoxyphenyl)-1,2,4-triazin-3-yl]sulfamoyl}benzamide]	79 ± 1 µM	78 ± 3 µM	–	75 ± 5 µM	17.5 min	–	–	–	–	–	–	–	–	–
Cc1ccc(NC(=O)c2cc(S(=O)(=O)Nc3nncc(-c4ccc(C(F)(F)F)cc4)n3)c(SCc3ccccc3)cc2Cl)cc1 [Compound 52, 4-Benzylthio-2-chloro-N-(4-methylphenyl)-5-{N-[5-(4-trifluoromethylphenyl)-1,2,4-triazin-3-yl]sulfamoyl}-benzamide]	–	69 ± 1 µM	–	70 ± 2 µM	26.5 min	–	–	–	–	–	–	–	–	100%

More lines, in order of falling IC50 (MCF-7 (breast cancer)), values ahead:

IC50 (HeLa (cervical cancer); Homo sapiens, 72 h)	IC50 (MCF-7 (breast cancer))	IC50 toward HeLa as well as HCT-116 [1]	IC50 (HCT-116 (colon cancer); Homo sapiens, HCT-116, 72 h)	half-life at 10 μM [2, 5]	half-life at 10 μM [2, 6]	IC50 [1]	IC50 (HCT-116, HeLa and MCF-7)	IC50 (HeLa (cervical cancer))	IC50 (HCT-116 (colon cancer))	melting point	SMILES	effect on mitochondrial membrane potential (Δψm) (MCF-7 [3])	Sub-G1 cell population (MCF-7 [4])	viability at 100 µM (HeLa (cervical cancer); Homo sapiens, HeLa, 72 h, 100 μM, read-out: Viability of cell line at 100 μM (HeLa))
85 ± 2 µM	98 ± 3 µM	–	77 ± 1 µM	–	–	51 to 85 µM	–	–	–	–	Cc1cc(S(=O)(=O)Nc2nncc(-c3ccc(C(F)(F)F)cc3)n2)c(SCc2c(C)noc2C)cc1Cl [Compound 40, 4-Chloro-2-[(3,5-dimethylizoxazol-4-yl)methylthio]-5-methyl-N-[5-(4-trifluoromethylphenyl)-1,2,4-triazin-3-yl]benzenesulfonamide]	–	–	–
55 ± 2 µM	96 ± 4 µM	–	49 ± 2 µM	13.9 min	–	–	< 71 µM	–	–	–	Cc1cc(S(=O)(=O)Nc2nncc(-c3cccc(F)c3)n2)c(SCc2cccc3ccccc23)cc1Cl [Compound 36, 4-Chloro-N-[5-(3-fluorophenyl)-1,2,4-triazin-3-yl]-5-methyl-2-[(naphthalene-1-yl)methylthio]benzene-sulfonamide]	–	–	–
93 ± 1 µM	95 ± 3 µM	–	83 ± 2 µM	–	–	–	–	–	–	208 to 211 °C	Cc1cc(S(=O)(=O)Nc2nncc(-c3cccc(F)c3)n2)c(SCc2c(C)noc2C)cc1Cl [Compound 39, 4-Chloro-2-[(3,5-dimethylizoxazol-4-yl)methylthio]-N-[5-(3-fluorophenyl)-1,2,4-triazin-3-yl]-5-methyl-benzenesulfonamide]	–	–	–
69 ± 1 µM	78 ± 2 µM	–	68 ± 3 µM	42.4 min	–	–	< 71 µM	–	–	–	COc1ccc(-c2cnnc(NS(=O)(=O)c3cc(C)c(Cl)cc3SCc3ccc(C(F)(F)F)cc3)n2)cc1 [Compound 35, 4-Chloro-N-[5-(4-methoxyphenyl)-1,2,4-triazin-3-yl]-5-methyl-2-[4-(trifluoromethyl)benzylthio]benzene-sulfonamide]	–	–	–
150 ± 6 µM	77 ± 2 µM	–	140 ± 7 µM	17.6 min	–	–	–	–	–	–	COc1ccc(-c2cnnc(NS(=O)(=O)c3cc(C)c(Cl)cc3SCc3ccccc3)n2)cc1OC [Compound 31, 2-Benzylthio-4-chloro-N-[5-(3,4-dimethoxyphenyl)-1,2,4-triazin-3-yl]-5-methylbenzenesulfonamide]	–	–	–
73 ± 1 µM	68 ± 3 µM	–	51 ± 1 µM	> 60 min	154 min	51 to 85 µM	< 71 µM	–	–	–	Cc1cc(S(=O)(=O)Nc2nncc(-c3ccc(C(F)(F)F)cc3)n2)c(SCc2ccc(C(F)(F)F)cc2)cc1Cl [Compound 34, 4-Chloro-5-methyl-2-[4-(trifluoromethyl)benzylthio]-N-[5-(4-trifluoromethylphenyl)-1,2,4-triazin-3-yl]-benzenesulfonamide]	–	–	–
90 ± 4 µM	67 ± 1 µM	–	85 ± 2 µM	24.9 min	–	–	–	–	–	–	COc1cccc(-c2cnnc(NS(=O)(=O)c3cc(C)c(Cl)cc3SCc3ccccc3)n2)c1 [Compound 30, 2-Benzylthio-4-chloro-N-[5-(3-methoxyphenyl)-1,2,4-triazin-3-yl]5-methylbenzenesulfonamide]	–	–	–
